We go through 6 compounds from patent publication US4309425A (priority 1980, dated 1982).

Test [1] has as its system Puccinia graminis var. tritici. The experiment in a line: whole plant or invertebrate. As to conditions: 192 h, read-out: % control wheat rust in a photostability test. It is filed as in vivo.
The subject of test [2] is Puccinia graminis var. tritici. The test is described as follows: whole plant or invertebrate. It is filed as in vivo. As to conditions: 192 h, read-out: % control wheat rust in residual wash-off test.
Test [3] deals with Pythium. The experiment in a line: Pythium infested soil test, cotton. It is filed as in vivo. As to conditions: 1.5 kg/ha, 8 days. From the text:
Pythium infested soil was placed in a 900 cc cup. Compounds of this invention were mixed at a rate of 1.5 kg/ha in a section 2" wide×2" deep×4" long to simulate an in-the-row application. Five cotton seeds were planted in the treated soil. After 8 days, the cotton plants were removed and rated for disease control.

The test system of test [4] is Phytophthora infestans. The test is described as follows: whole plant or invertebrate. It is filed as in vivo. As to conditions: in Solanum lycopersicum, 96 h, read-out: % control tomato late blight in a residual wash-off test.
In test [5] the test system is Eggs of the beet armyworm (Spodoptera exigua). The experiment in a line: beet armyworm egg (ovicidal) test, % eggs failing to hatch. It is filed as in vivo. As to conditions: 72 h, three days, read-out: % Control (% eggs failing to hatch); for mortality at 1 %: 1% in acetone; for mortality at 200 ppm: 200 ppm in acetone. The method, then: Eggs of the beet armyworm (Spodoptera exigua), laid on cellophane discs each containing 50-75 eggs, were placed in petri dishes and lightly sprayed with 1% concentrations of the indicated compounds in acetone solution. Three days later, percent control (% eggs failing to hatch) was determined.
Eggs of the beet armyworm (Spodoptera exigua), laid on cellophane discs each containing 50-75 eggs, were placed in petri dishes and lightly sprayed with 200 ppm concentration of the indicated compounds in acetone solution. Three days later, percent control (% eggs failing to hatch) was determined.

The test system of test [6] is Erysiphe cichoracearum. The experiment in a line: cucumber powdery mildew photostability test. It is filed as in vivo. As to conditions: Golovinomyces cichoracearum, 168 h, xenon arc 3500 foot candles 16 hours, 7 days. The method, then: (§1) Compounds of this invention are dissolved in acetone in an amount equal to 6% of the final volume and then suspended at a concentration of 20 ppm in purified water containing 25 ppm of the surfactant Alkanol® XC (sodium alkyl naphthalene sulfonate). This suspension is sprayed to the point of run-off in cucumber seedlings. When the foliage is dry, the plants are exposed to 3500 foot candles of light from a xenon arc source for a period of 16 hours. This light source approximates the spectrum of natural sunlight, and is used to assess photostability of the compounds of this invention on plant foliage. The following day, the plants are inoculated with a spore suspension of the fungus Erysiphe cichoracearum and incubated in a growth room for 7 days. Disease ratings are then made.

Test [7] deals with Venturia inaequalis. The test is described as follows: apple scab photostability test. It is filed as in vivo. As to conditions: xenon arc 3500 foot candles 16 hours, 10-12 days. The method, then:
as §1, with “on apple” for “in cucumber”, “Venturia inaequalis” for “Erysiphe cichoracearum”, “10-12” for “7”, “made. […] Phytotoxicity in the form of foliar burn was observed on some of the plants in association with disease control.” for “made.”

Test [8] has as its system Erisyphe cichoracearum. The test is described as follows: cucumber powdery mildew curative test. Format: in vivo. As to conditions: Cucumis sativus, 144 h, sprayed day after inoculation, additional 6 days. An excerpt: Cucumber plants are inoculated with a spore suspension of the fungus Erisyphe cichoracearum and in a growth room overnight. The following day, the plants are sprayed to the point of run-off with a suspension prepared by dissolving compounds of this invention in acetone in an amount equal to 6% of the final volume and then suspended at a concentration of 20 ppm in purified water containing 25 ppm of the surfactant Alkanol® XC (sodium alkyl naphthalene sulfonate). Plants are returned to the growth room for an additional 6 days when disease ratings are then made. […] Phytotoxicity in the form of foliar burn or growth reduction was observed on some of the plants in association with disease control.

The subject of test [9] is adult cotton boll weevils (Anthonomus grandis). The experiment in a line: adult cotton boll weevils spray test. As to conditions: 1% acetone solution, 24 hours. Format: in vivo. The protocol: Five adult cotton boll weevils (Anthonomus grandis) were confined in a 4-oz. wide mouth jar. These were sprayed with a 1% acetone solution of the indicated compounds. Percent mortality after 24 hours is set forth below.

Test [10] deals with adult houseflies. The experiment in a line: adult houseflies spray test. It is filed as in vivo, housefly. As to conditions: Musca domestica; 1% acetone solutions, 24 hours. An excerpt: Twenty adult houseflies were confined in each of several cylindrical stainless steel cages (7.5 cm D×4 cm high) with wire screens of the ends. These were sprayed with 1% acetone solutions of the indicated compounds.

For test [11], the system named is Erysiphe cichoracearum. The test is described as follows: cucumber powdery mildew residual wash-off test. Format: in vivo. As to conditions: Golovinomyces cichoracearum, 168 h, 1/2 inch simulated rainfall, 7 days. The protocol: (§2) Compounds of this invention are dissolved in acetone in an amount equal to 6% of the final volume and then suspended at a concentration of 20 ppm in purified water containing 25 ppm of the surfactant Alkanol® XC (sodium alkyl naphthalene sulfonate). This suspension is sprayed to the point of run-off on cucumber seedlings. The following day, 1/2 inch of simulated rainfall is applied to the foliage of the plants. When the foliage is dry, the plants are inoculated with a spore suspension on the fungus Erysiphe cichoracearum and incubated in a growth room for 7 days. Disease ratings are then made.

Test [12] has as its system Rhizoctonia solani. The experiment in a line: Rhizoctonia solani infested soil test, cotton. As to conditions: 192 h, 1.5 kg/ha, 8 days. It is filed as in vivo. From the text: Rhizoctonia solani-infested soil was placed in a 900 cc cup. Compounds of this invention were mixed at a rate of 1.5 kg/ha in a section 2" wide×2" deep×4" long to simulate an in-the-row application. Five cotton seeds were planted in the treated soil. After 8 days, the cotton plants were removed and rated for disease control.

Test [13] deals with Venturia inaequalis. The experiment in a line: apple scab residual wash-off test. Format: in vivo. As to conditions: 1/2 inch simulated rainfall, 10-12 days. The method, then:
as §2, with “on apple” for “on cucumber”, “suspension of” for “suspension on”, “fungus Venturia inaequalis” for “fungus Erysiphe cichoracearum”, “for 10-12” for “for 7”, “made. […] Phytotoxicity in the form of foliar burn was observed on the plants in association with disease control.” for “made.”

Test [14] relates to Puccinia graminis var. tritici. The test is described as follows: whole plant or invertebrate. It is filed as in vivo. As to conditions: 192 h, read-out: % control wheat rust in preventive test.
Test [15] relates to Erysiphe cichoracearum. The experiment in a line: cucumber powdery mildew preventive test. As to conditions: Golovinomyces cichoracearum, 168 h, 7 days. Format: in vivo. The method, then:
as §2, with “day,” for “day, 1/2 inch of simulated rainfall is applied to the foliage of the plants. When the foliage is dry,”, “suspension of” for “suspension on”, “made. […] Phytotoxicity in the form of foliar burn or growth reduction was observed on some of the plants in association with disease control.” for “made.”

Test [16] deals with Phytophthora infestans. It is filed as in vivo. As to conditions: 20 ppm, 4 days.
Test [17] relates to Venturia inaequalis. The experiment in a line: apple scab preventive test. Format: in vivo. As to conditions: 10-12 days. The method, then: Compounds of this invention are dissolved in acetone in an amount equal to 6% of the final volume and then suspended at a concentration of 20 ppm in purified water containing 25 ppm of the surfactant Alkanol® XC (sodium alkyl naphthalene sulfonate). This suspension is sprayed to the point of run-off on apple seedlings. The following day, the plants are inoculated with a spore suspension of the fungus Venturia inaequalis and incubated in a growth room for 10-12 days. Disease ratings are then made. […] Phytotoxicity in the form of foliar burn was observed on some of the plants in association with disease control.

Test [18] concerns Phytophthora infestans. The experiment in a line: whole plant or invertebrate. Format: in vivo. As to conditions: in Solanum lycopersicum, 96 h, read-out: % control tomato late blight in a photostability test.

Like-named read-outs stand apart in the source and are kept apart here.

Turning to `O=C1CCCN1SN(c1cc(C(F)(F)F)ccc1Cl)c1c([N+](=O)[O-])cc([N+](=O)[O-])cc1C(F)(F)F`, the pest or weed control at 20 ppm amounted to 100% in test [1]; 100% in [2]; 50% in test [4]; 97% in test [6]; 50% in [7]; 100% in test [8]. The pest or weed control at 20 ppm was 30% in test [11], 75% in [13], 100% in [14] and 100% in test [15]. Besides, the “% control Pythium” value in [3] is recorded as 50%. Moreover, the mortality at 1 % in test [5], in [9] and in test [10] was 100% each time. Besides, in [12], the pest or weed control at 1500 g/ha is 90%.
On to `COC(=O)CN(SN(c1cc(C(F)(F)F)ccc1Cl)c1c([N+](=O)[O-])cc([N+](=O)[O-])cc1C(F)(F)F)S(=O)(=O)c1ccc(C)cc1`, for which the pest or weed control at 20 ppm in test [1] was 20%; in test [2] it was 25%; in [4], 0%; in test [6], 0%; in test [7], 0%; in test [8], 0%. Moreover, the pest or weed control at 20 ppm in [11] is 0%; in [17], 0%; in test [13], 0%; in test [18], 0%; in [14] it was 30%; in test [15], 0%. Further, the “% control tomato late blight in a preventive test” value in test [16] is 0%. For the same compound, the “% control Pythium” value in [3] is on record as 50%. The compound further came in with a pest or weed control at 1500 g/ha in test [12] of 50%.
For `CCCCN(SN(c1cc(C(F)(F)F)ccc1Cl)c1c([N+](=O)[O-])cc([N+](=O)[O-])cc1C(F)(F)F)S(=O)(=O)N(C)C`, the pest or weed control at 20 ppm in test [1] is 80%; in [2], 90%; in [4], 93%; in [6], 80%; in test [7] it was 0%; in test [8], 99%. The pest or weed control at 20 ppm is 98% in [11]; 100% in test [17]; 100% in test [13]; 90% in test [18]; 100% in [14]; 100% in test [15]. Further, the “% control Pythium” value in test [3] stood at 0%. Also, the mortality at 1 % in test [5], in [9] and in [10] was 100% in each case. The same compound returned a pest or weed control at 1500 g/ha in [12] of 0%.
With `CN(SN(c1cc(C(F)(F)F)ccc1Cl)c1c([N+](=O)[O-])cc([N+](=O)[O-])cc1C(F)(F)F)S(=O)(=O)c1ccc2ccccc2c1`, the pest or weed control at 20 ppm in [1] was 100%; in test [2], 100%; in test [4], 100%; in [6], 75%; in test [7] it was 0%; in test [8] it was 50%. In addition, the pest or weed control at 20 ppm in [11] was 85%; in test [17], 50%; in test [13], 100%; in test [18], 100%; in test [14], 100%; in [15], 100%. Moreover, in [3], the “% control Pythium” value is recorded as 0%. Also, the mortality at 1 % in test [5], in test [9] and in [10] was 100% throughout. In [12], the pest or weed control at 1500 g/ha was found to be 0%.
As for `CN(SN(c1cc(C(F)(F)F)ccc1Cl)c1c([N+](=O)[O-])cc([N+](=O)[O-])cc1C(F)(F)F)S(=O)(=O)c1ccc(Cl)cc1` [4-chloro-N-[N-(2-chloro-5-trifluoromethylphenyl)-N-(2,4-dinitro-6-trifluoromethylphenyl)aminothio]-N-methylbenzenesulfonamide], in test [5], the mortality at 200 ppm was 100%.
The same measure, in the same setting: then `COCCN(SN(c1cc(C(F)(F)F)ccc1Cl)c1c([N+](=O)[O-])cc([N+](=O)[O-])cc1C(F)(F)F)S(=O)(=O)c1ccc(C)cc1` [N-[N-[2-chloro-5-(trifluoromethyl)phenyl]-N-[2,4-dinitro-6-trifluoromethylphenyl]aminothio]-N-(2-methoxyethyl)-4-methylbenzenesulfonamide], with 100%.
